The subject of one experiment is transplant rejection. Particulars: cited from earlier work.
For experiment [1] the following is noted: in vivo; cited from earlier work.
Experiment [2] relates to mixed lymphocyte reaction, popliteal lymph node. In words: popliteal lymph node (PLN) test procedure, in vivo mixed lymphocyte reaction. More on the design: species or system mouse (BALB/c donors, C3H recipients). Conditions: p.o. daily Day 0 to Day 4, carboxymethyl cellulose vehicle; rapamycin 1.0. The protocol:
(§1) Immunosuppressive activity was evaluated in an in vitro standard pharmacological test procedure to measure lymphocyte proliferation (LAF) and in two in vivo standard pharmacological test procedures. The first in vivo procedure was a popliteal lymph node (PLN) test procedure which measured the effect of compounds of this invention on a mixed lymphocyte reaction and the second in vivo procedure evaluated the survival time of a pinch skin graft.
A mixed lymphocyte reaction (MLR) occurs when lymphoid cells from genetically distinct animals are combined in tissue culture. Each stimulates the other to undergo blast transformation which results in increased DNA synthesis that can be quantified by the incorporation of tritiated thymidine. Since stimulating a MLR is a function of disparity at Major Histocompatibility antigens, an in vivo popliteal lymph node (PLN) test procedure closely correlates to host vs. graft disease. Briefly, irradiated spleen cells from BALB/c donors are injected into the right hind foot pad of recipient C3H mice. The drug is given daily, p.o. from Day 0 to Day 4. On Day 3 and Day 4, tritiated thymidine is given i.p., b.i.d. On Day 5, the hind popliteal lymph nodes are removed and dissolved, and radioactivity counted. […] Percent suppression is calculated using the non-drug treated animals as allogenic control.

Another experiment concerns Candida albicans. Particulars: in vitro and in vivo; cited from earlier work.
The next experiment relates to pinch skin graft. In words: survival time of pinch skin graft. The experiment is classed as in vivo, mouse (male DBA/2 donors, male BALB/c recipients). Particulars: intraperitoneally, mean graft survival time ± S.D. As for the experimental part:
as §1
The second in vivo test procedure is designed to determine the survival time of pinch skin graft from male DBA/2 donors transplanted to male BALB/c recipients. The method is adapted from Billingham R. E. and Medawar P. B., J. Exp. Biol. 28:385-402, (1951). Briefly, a pinch skin graft from the donor is grafted on the dorsum of the recipient as a homograft, and an autograft is used as control in the same region. […] Untreated recipients serve as rejection control. The graft is monitored daily and observations are recorded until the graft becomes dry and forms a blackened scab. This is considered as the rejection day. The mean graft survival time (number of days±S.D.) of the drug treatment group is compared with the control group.

The test system of experiment [3] is 5 strains of Candida albicans. The experiment can be described thus: antifungal plate test procedure, 5 strains (overall). The experiment is classed as cell-based. Conditions: not evaluated; considered because of structural similarity. The protocol:
(§2) The following represents the typical procedure used. Compound to be tested was placed on sterile dried 1/4" plate disks, and allowed to dry. Agar plates were seeded with fungi and allowed to solidify. The impregnated disks were placed on the seeded Agar surface and incubated for the time required for the particular culture. Results are expressed in MIC (μg/ml) to inhibit growth.

Experiment [4] deals with lymphocyte proliferation, cells from the thymus of normal BALB/c mice (PHA and IL-1). The experiment can be described thus: comitogen-induced thymocyte proliferation procedure (LAF). The format is cell-based. Particulars: for LAF (ratio): thymocytes 72 hours with PHA and IL-1, rapamycin 1.0. As for the experimental part: as §1
Briefly, cells from the thymus of normal BALB/c mice are cultured for 72 hours with PHA and IL-1 and pulsed with tritiated thymidine during the last six hours. […] Cells are harvested and incorporated; radioactivity is determined. inhibition of lymphoproliferation is assessed in percent change in counts per minute from non-drug treated controls. The results are expressed by the following ratio: [formula]

A further experiment concerns Candida albicans 3669. The experiment can be described thus: antifungal plate test procedure. The format is cell-based. Particulars: strain 3669. The protocol:
as §2

In experiment [5] the test system is Candida albicans ATCC 38246. The experiment can be described thus: antifungal plate test procedure. The format is cell-based. Particulars: ATCC 38246. The protocol: as §2
Experiment [6] concerns Candida albicans ATCC 38248. In words: antifungal plate test procedure. Conditions: ATCC 38248. The format is cell-based. The protocol: as §2
Experiment [7] deals with Candida albicans ATCC 10231. The experiment can be described thus: antifungal plate test procedure. Particulars: ATCC 10231. The format is cell-based. As for the experimental part:
as §2

Experiment [8] has as its system Candida albicans ATCC 38247. In words: antifungal plate test procedure. Particulars: ATCC 38247. The format is cell-based. As for the experimental part: as §2

Entries after “also recorded” stand apart in the source; their conditions may differ. Where a name gives a salt, the structure may show the parent alone.

Data on five compounds can be found in patent US5378696A, “Rapamycin esters” (American Home Products Corporation, priority 1993, dated 1995).

Regarding `CO[C@H]1C[C@@H]2CC[C@@H](C)[C@@](O)(O2)C(=O)C(=O)N2CCCC[C@H]2C(=O)O[C@H]([C@H](C)C[C@@H]2CC[C@@H](O)[C@H](OC)C2)CC(=O)[C@H](C)/C=C(\C)[C@@H](O)[C@@H](OC)C(=O)[C@H](C)C[C@H](C)/C=C/C=C/C=C/1C` [Rapamycin], the immunosuppressive effect result in the experiment with transplant rejection was “immunosuppressive effects”. The “usefulness in preventing or treating disease” value in experiment [1] is “systemic lupus erythematosus; also recorded: pulmonary inflammation; also recorded: insulin dependent diabetes mellitus; also recorded: smooth muscle cell proliferation and intimal thickening following vascular injury; also recorded: ocular inflammation”. The “PLN (ratio)” value in experiment [2] came to 1.0. The antifungal activity result with Candida albicans was “found to have antifungal activity, particularly against Candida albicans, both in vitro and in vivo”.

For the compound `CO[C@H]1C[C@@H]2CC[C@@H](C)[C@@](O)(O2)C(=O)C(=O)N2CCCC[C@H]2C(=O)O[C@H]([C@H](C)C[C@@H]2CC[C@@H](OC(=O)CCC(=O)OCc3ccc(C(F)(F)F)cc3)[C@H](OC)C2)CC(=O)[C@H](C)/C=C(\C)[C@@H](O)[C@@H](OC)C(=O)[C@H](C)C[C@H](C)/C=C/C=C/C=C/1C` [Example 13, Rapamycin-42-(4-trifluoromethylbenzyl)succinate], the “Skin Graft (days + SD), mean graft survival time” value (shortened to “Skin Graft (days + SD)”) in the experiment with pinch skin graft stood at 10.6 ± 0.9 days. In experiment [3], the antifungal activity entry is “considered to have antifungal activity”. For the same compound, the “LAF (ratio)” value in experiment [4] was 2.11.

In general, inhibition refers to the percentage by which the read-out fell short of the control. For the compound `COC(=O)CCC(=O)O[C@@H]1CC[C@@H](C[C@@H](C)[C@@H]2CC(=O)[C@H](C)/C=C(\C)[C@@H](O)[C@@H](OC)C(=O)[C@H](C)C[C@H](C)/C=C/C=C/C=C(\C)[C@@H](OC)C[C@@H]3CC[C@@H](C)[C@@](O)(O3)C(=O)C(=O)N3CCCC[C@H]3C(=O)O2)C[C@H]1OC` [Example 12, Rapamycin-42-monomethylsuccinate], the “Skin Graft (days + SD)” value in the experiment on pinch skin graft was found to be 10.8 ± 0.4 days. Besides, the antifungal activity result in [3] is recorded as “considered to have antifungal activity”. Further, at 0.1 µM the inhibition in [4] (Mus musculus, Lymphocyte, percent inhibition at 100 nM) was 97%.

In general, MIC refers to the lowest concentration that inhibits growth of the organism. For the compound `CO[C@H]1C[C@@H]2CC[C@@H](C)[C@@](O)(O2)C(=O)C(=O)N2CCCC[C@H]2C(=O)O[C@H]([C@H](C)C[C@@H]2CC[C@@H](OC(=O)CCCC(=O)O)[C@H](OC)C2)CC(=O)[C@H](C)/C=C(\C)[C@@H](OC(=O)CCCC(=O)O)[C@@H](OC)C(=O)[C@H](C)C[C@H](C)/C=C/C=C/C=C/1C` [Example 5, Rapamycin-31,42-hemiglutarate bissodium salt], the “Skin Graft (days + SD)” value with pinch skin graft (bissodium salt) came out at 8.0 ± 1.7 days. In addition, the MIC in the experiment with Candida albicans 3669 (bissodium salt) is greater than 0.4 µg/mL; in experiment [5] (bissodium salt), greater than 0.4 µg/mL; in experiment [6] (bissodium salt), greater than 0.4 µg/mL; in experiment [7] (bissodium salt), 0.4 µg/mL; in experiment [8] (bissodium salt), greater than 0.4 µg/mL. In addition, in experiment [4] (bissodium salt), the “LAF (ratio)” value was 0.02.

`CO[C@H]1C[C@@H]2CC[C@@H](C)[C@@](O)(O2)C(=O)C(=O)N2CCCC[C@H]2C(=O)O[C@H]([C@H](C)C[C@@H]2CC[C@@H](OC(=O)CCCC(=O)O)[C@H](OC)C2)CC(=O)[C@H](C)/C=C(\C)[C@@H](OC(=O)CCCC(=O)O)[C@@H](OC)C(=O)[C@H](C)C[C@H](C)/C=C/C=C/C=C/1C` [Example 6, Rapamycin-31,42-bishemiglutarate bistromethamine salt]: in the experiment with pinch skin graft, the “Skin Graft (days + SD)” value came to 8.0 ± 0.9 days. Also, the MIC against Candida albicans 3669 was greater than 0.4 µg/mL; in experiment [5] it was greater than 0.4 µg/mL; in [6] it was greater than 0.4 µg/mL; in experiment [7] it was 0.4 µg/mL; in [8] it was 0.4 µg/mL. Moreover, in experiment [4], the “LAF (ratio)” value was 0.01.
